Laboratory results: ChEMBL document CHEMBL4406799, “Identification of benzo[cd]indol-2(1H)-ones as novel Atg4B inhibitors via a structure-based virtual screening and a novel AlphaScreen assay” (Eur J Med Chem, 2019)
The source made the active and inactive calls. The rule behind the calls is not given here.

How the values were obtained:
HT-29 [1] = conditions: Homo sapiens, 100 to 200 uM
Description: Inhibition of autophagic flux in human HT-29 cells assessed as reduction in p62 degradation at 100 to 200 uM after 16 hrs by Western blot analysis

Papain (Carica papaya) = biological target: T1, Papain (Carica papaya) (UniProt P00784); assay: Inhibition of papaya papain at 50 uM using L-pyroglutamyl-L-phenylalanyl-L-leucine-p-nitroanilide as substrate measured after 30 mins
T1 sequence (whole entry): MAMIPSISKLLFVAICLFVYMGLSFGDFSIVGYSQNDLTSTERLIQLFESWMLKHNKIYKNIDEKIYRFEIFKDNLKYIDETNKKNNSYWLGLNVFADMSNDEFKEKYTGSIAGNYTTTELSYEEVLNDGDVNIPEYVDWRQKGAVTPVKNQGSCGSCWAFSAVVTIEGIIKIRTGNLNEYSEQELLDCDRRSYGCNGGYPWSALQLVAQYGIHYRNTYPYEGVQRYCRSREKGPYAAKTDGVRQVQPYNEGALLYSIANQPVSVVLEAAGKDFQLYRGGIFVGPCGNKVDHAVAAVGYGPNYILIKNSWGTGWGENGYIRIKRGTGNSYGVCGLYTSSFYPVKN

HT-29 [2] = assay: Antiproliferative activity against human HT-29 cells assessed as reduction in cell viability at 75 uM in presence of oxaliplatin after 24 to 72 hrs by MTT assay; type: functional, cell-based
HT-29 [3] = conditions: Homo sapiens, 100 to 200 uM; remark: listed apart in the source
Description: Inhibition of autophagic flux in human HT-29 cells assessed as increase in LC3-2 expression at 100 to 200 uM after 16 hrs by Western blot analysis

Cysteine protease ATG4B [4] = biological target: T2, Cysteine protease ATG4B (Homo sapiens, UniProt Q9Y4P1); assay: Inhibition of ATG4B (unknown origin) using N-(His)6-LC3B(L123C)Biotin as substrate preincubated for 30 mins and measured after 1 hr by AlphaScreen method
T2 sequence (Q9Y4P1 whole entry): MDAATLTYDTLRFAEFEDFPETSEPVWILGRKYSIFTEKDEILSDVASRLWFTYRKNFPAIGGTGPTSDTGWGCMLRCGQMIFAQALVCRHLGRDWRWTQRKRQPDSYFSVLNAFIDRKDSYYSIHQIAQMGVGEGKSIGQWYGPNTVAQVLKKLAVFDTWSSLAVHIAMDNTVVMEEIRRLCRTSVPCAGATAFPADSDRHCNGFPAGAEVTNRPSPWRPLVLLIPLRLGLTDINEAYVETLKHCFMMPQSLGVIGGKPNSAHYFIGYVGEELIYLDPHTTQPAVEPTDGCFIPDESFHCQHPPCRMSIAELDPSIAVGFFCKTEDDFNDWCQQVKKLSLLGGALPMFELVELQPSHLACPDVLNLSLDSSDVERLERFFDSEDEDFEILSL

Cysteine protease ATG4B [5] = biological target: T2, Cysteine protease ATG4B; assay: Inhibition of ATG4B (unknown origin) using N-(His)6-LC3B(L123C) as substrate preincubated for 1 hr followed by substrate addition and measured after 30 mins MS-based analysis
Cysteine protease ATG4B [6] = biological target: T2, Cysteine protease ATG4B; assay: Inhibition of recombinant ATG4B (unknown origin) expressed in Escherichia coli BL21(DE3) using LC3-PLA2 as substrate by fluoroscence based assay

Structure (SMILES) | inhibition (Papain (Carica papaya)) | IC50 (Cysteine protease ATG4B [4]; read-out: IC50) [µM] | IC50 (Cysteine protease ATG4B [5]) [µM] | further results
CCCCC(O)CNc1cc2c3c(cccc3c1)C(=O)N2 (stereo unspecified) | inactive |  |  | inhibition (HT-29 [1]): Active; Activity (HT-29 [2]): Active; inhibition (HT-29 [3]): Active
O=C1NC(=O)c2cc(NCC(O)CCl)cc3cccc1c23 (stereo unspecified) |  |  |  | IC50 (Cysteine protease ATG4B [4]): Not Active
Oc1ccc(C2=Nc3cccc4cccc(c34)N2)cc1 |  | 300 | 150 | 
O=C1Nc2ccc(NCC(O)CCl)c3cccc1c23 (stereo unspecified) |  | > 300 | 280 | 
O=c1oc2c(O)c(O)cc3c(=O)oc4c(O)c(O)cc1c4c23 [ELLAGIC ACID] |  |  |  | IC50 (Cysteine protease ATG4B [6]): 3 µM
O=C1Nc2cccc3cc(NCC(O)CCl)cc1c23 (stereo unspecified) | inactive |  |  | 
O=C(/C=C1/Nc2cc(Cl)c(Cl)cc2NC1=O)N/N=C/c1ccccc1O |  | 315 |  | 
CCCCC(O)CNc1cc2c3c(cccc3c1)NC2=O (stereo unspecified) |  | 235 | 215 | 
C=CCCC(O)CNc1cc2c3c(cccc3c1)NC2=O (stereo unspecified) |  |  |  | IC50 (Cysteine protease ATG4B [4]): Not Active
O=C(N[C@@H](Cc1ccccc1)C(=O)CCl)OCc1ccccc1 | Active |  |  | 
